From US8697629B2, “Modulation of intracellular signaling” (Angstrom Pharmaceuticals, Inc., priority 2010, dated 2014)

Tests used:
Assay type in all cases: cell-based
SKOV3 cells = assay: Boyden chamber chemotaxis/migration of SKOV3 cells; settings: SKOV3
Description: A2780 (FIG. 10a) and SKOV3 (FIG. 10b) cells were incubated with the indicated concentrations of Å6 peptide for 30 min at 37° C. Aliquots representing 6,000 cells were placed on quadruplicate, CnI-coated filters (8 μm pores) in Boyden chambers and the cells allowed to migrate overnight in response to 10 ng/ml VEGF in NIH3T3-conditioned media containing the indicated concentrations of Å6. Upon completion of migration, the apical surfaces of the membranes were wiped clean and the migrating cells on the basal surface were stained with Geimsa stain and the cells present in representative fields of the membranes counted. Data represent the averages+/−standard deviations obtained from the replicate filters. […] This provides further confirmation that CD44 is the target for the Å6 peptide.
SKOV3 cells are harvested by trypsinization and washed once with RPMI−0.5% BSA. Next, the cells are re-suspended in RPMI+0.5% BSA @ 6E4/mL (6000 cells/100 μL). The peptide is pre-treated with 500 μL of cells added to 500 μL peptide NASAPPEE (2× concentration, final conc. at 100, 10, 1, 0.1, 0.01, 0.001 uM) and the mixture incubated 30 minutes at 37° C., under 5% CO2. The Boyden chamber is assembled by: Placing in the bottom chambers: 220 μL of serum/BSA free DMEM or NIH3T3CM+10 ng/ml VEGF or NIH3T3CM+10 ng/ml VEGF+peptide. Place 8 μm filters on the top of the bottom chambers. The 8 μm filters are coated with 1 mg/ml collagen I at 4° C. overnight, washed with PBS twice, air dry before use. Add 200 μL of cells with or without peptide pretreatment to the top of Boyden chamber. Note that the peptide is in both top and bottom chambers. Cells migrate overnight at 37° C., under 5% CO2 in incubator. Next, Boyden chambers are disassembled the and filters collected. The cells on the filters after collection are treated with −20° C. methanol for 3 minutes at room temperature and stained with 30% Geimsa for 7 minutes at room temperature, and washed with water twice. The filters are mounted on slides, air dried and the cells counted.
Cell numbers were obtained by counting the cells in four fields of filters using a 40× objective. The cells migrating into the bottom chambers were also counted as follows: a) 200 μL fluid in the bottom chamber was transferred to a well of 96-well plate; b) The plate was centrifuged at 1200 rpm for 5 minutes; c) 180 μL of supernatant was removed; d) The cell pellet was resuspended with the remaining 20 μL fluid and the cells counted using a hemocytometer. […] This compares favorably to the Å6 peptide which is effective between 5 μM and 100 nM.

FAK = FAK phosphorylation in SKOV3 cells, immunoblot and densitometry; settings: SKOV3, all conditions; Y397, Y576/577, Y925
Description: (§1) Cells were detached from their culture vessels by brief trypsinization, suspended in complete media and centrifuged at 250×g for 10 min at room temperature. The cell pellets were suspended in Dulbeco's phosphate buffered saline (DPBS) and re-centrifuged for a total of three washes. The cells were then re-suspended at 3.33E5/ml in 24 ml of either RPMI containing 0.5% BSA (Sigma Chem. Co. #A0336) (RPMI/BSA) or the conditioned media of growing NIH3T3 fibroblasts (10% FBS in DMEM) supplemented with 10 ng/ml vascular endothelial growth factor (VEGF) (CMN). The cells were then treated with or without 100 ug/ml soluble hyaluronic acid (HA; human umbilical, Calbiochem #385902) for 30 min at 37° C. under 5% CO2. Aliquots representing 2E6 cells were then plated into 10 cm culture dishes and A6 added to yield final concentrations of 0, 10, 100 and 1000 nM. The cells were cultured overnight (18 hr) at 37° C. under 5% CO2.
(§2) After 18 hr of treatment, the media were aspirated from the 10 cm dishes and saved. The plates were washed 3 times with 4 ml of ice-cold DPBS which were pooled with the reserved non-adherent cells. The non-adherent cells were centrifuged at 250×g for 10 min at 4° C., washed twice with cold DPBS, drained and lysed in 50 ul of cold RIPA buffer (ThermoScientific #89901) containing cocktails of broad spectrum phosphatase inhibitors (Calbiochem #524625; used at 2× final concentration) and protease inhibitors (Sigma #P8340) (RIPA/inh.). The 10 cm dishes were drained of remaining wash and the adherent cells lysed by scraping in 200 μL of cold RIPA/inh. For each test condition, the lysates of the non-adherent and adherent populations were combined, vortexed and then centrifuged at 14,000 rpm at 4° C. for 20 min. Aliquots of the cleared lysates were frozen at −80° C. immediately. A small aliquot was reserved for total protein analysis using a BCA Protein Assay Kit (Calbiochem #71285-3).
(§3) Samples representing 20 μg of total protein of each lysate were solubilized in the presence of 50 mM Tris pH 6.8, 10% glycerol, 2% SDS and 100 mM DTT for 5 min at 95° C. and then loaded onto 10-20% acrylamide gels (BioRad #345-0044, Tris-HCl, 1 mm, 26 well, 15 μL/well). Electrophoresis was performed using Laemli electrophoresis buffer (0.1% SDS, 25 mM Tris, 192 mM glycine) at 200 V, constant voltage, for one hour. Upon completion of electrophoresis, the proteins were transferred to Immun-Blot PVDF membranes (BioRad #162-0238) in ice-cold 20% methanol in 25 mM Tris, 192 mM glycine for 2 hr at 0.5 Amps, constant current/blotting apparatus. […]
(§4) The integrated densities (id) of the bands of interest were measured using Image J software (NIH). […]

MEK = MEK phosphorylation (S217/221) in SKOV3 cells, immunoblot and densitometry
Description: as §1, §2, §3, §4

PKCalpha = PKCalpha phosphorylation in SKOV3 cells, immunoblot
Description: as §1, §2
as §3, with “apparatus. The membranes were then cut vertically between molecular weight markers and in half at the 64 kDa marker to generate pieces for screening of higher molecular weight proteins (e.g., FAK) and lower molecular weight proteins (e.g., MEK and GAPDH).” for “apparatus.”

ERK 1/2 = ERK 1/2 phosphorylation (T202/Y204) in SKOV3 cells, immunoblot; settings: basal media (RPMI/BSA)
Description: as §1, §2
Samples representing 20 μg of total protein of each lysate were solubilized in the presence of 50 mM Tris pH 6.8, 10% glycerol, 2% SDS and 100 mM DTT for 5 min at 95° C. and then loaded onto 10-20% acrylamide gels (BioRad #345-0044, Tris-HCl, 1 mm, 26 well, 15 μL/well). Electrophoresis was performed using Laemli electrophoresis buffer (0.1% SDS, 25 mM Tris, 192 mM glycine) at 200 V, constant voltage, for one hour. Upon completion of electrophoresis, the proteins were transferred to Immun-Blot PVDF membranes (BioRad #162-0238) in ice-cold 20% methanol in 25 mM Tris, 192 mM glycine for 2 hr at 0.5 Amps, constant current/blotting apparatus. The membranes were then cut vertically between molecular weight markers and in half at the 64 kDa marker to generate pieces for screening of higher molecular weight proteins (e.g., FAK) and lower molecular weight proteins (e.g., MEK and GAPDH). The blots were then blocked for a minimum of 4 hrs at room temperature in 3% bovine serum albumin (Sigma A0336) in 50 mM Tris, pH 7.4, 145 mM NaCl, 0.05% Tween-20 (TTBS) containing 0.05% sodium azide.
Upon completion of the primary antibody incubation, the blots were washed three times for 10 min in TTBS and then incubated with 1/25,000 dilutions of peroxidase-conjugated donkey anti-mouse IgG (Jackson ImmunoResearch #715-035-150) or peroxidase-conjugated donkey anti-rabbit IgG (Jackson ImmunoResearch #711-035-152) in TTBS containing 3% BSA for one hour at room temperature. […]

NASAPPEE (peptide which potentiates the binding of CD44 polypeptide expressing cells to hyaluronic acid (HA)) [corresponds to amino acids 120-127 of CD44]
cell migration inhibition, lower end of effective concentration range (SKOV3 cells): 1 nM | cell migration inhibition, upper end of effective concentration range (SKOV3 cells): 100 µM

hyaluronic acid [HA, reference compound]
pFAK/FAK ratios (FAK): reduced | total MEK levels (MEK): appears to have decreased | pMEK/MEK (MEK; under all conditions): increased | pPCKa/PKCa (PKCalpha): appears to have enhanced | pERK/Erk (ERK 1/2): increased
